Results: patent publication US7910612B2, “4-oxy-N-[1,3,4]-thiadiazol-2-yl-benzene sulfonamides, pharmaceutical compositions and methods for their therapeutic use” (Sanofi-Aventis, priority 2005, dated 2011)

Target: T1, human PPARdelta (Homo sapiens, UniProt Q03181)
T1 construct: amino acids S139-Y441; expressed in transfected cells; host or cells: HEK (human embryo kidney) cells, stably transfected, pcDNA3 vector
T1 sequence (Q03181 139-441): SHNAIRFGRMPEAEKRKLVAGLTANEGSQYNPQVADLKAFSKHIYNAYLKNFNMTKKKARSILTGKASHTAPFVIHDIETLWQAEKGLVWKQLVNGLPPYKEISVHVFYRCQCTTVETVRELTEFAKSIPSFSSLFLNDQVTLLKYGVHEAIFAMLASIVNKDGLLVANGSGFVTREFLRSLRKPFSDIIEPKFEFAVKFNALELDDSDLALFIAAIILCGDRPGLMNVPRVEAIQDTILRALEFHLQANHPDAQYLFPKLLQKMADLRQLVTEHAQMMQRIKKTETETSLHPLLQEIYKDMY
Assay: cellular PPARdelta assay (stably transfected HEK luciferase reporter cell line)
Assay type: cell-based
Description: The potency of substances which bind to human PPARdelta and activate it in an agonistic manner is analyzed using a stably transfected HEK cell line (HEK=human embryo kidney) which is referred to here as PPARdelta reporter cell line. In analogy to the assay described for PPARalpha, the PPARdelta reporter cell line also contains two genetic elements, a luciferase reporter element (pdeltaM-GAL4-Luc-Zeo) and a PPARdelta fusion protein (GR-GAL4-humanPPARdelta-LBD) which mediates expression of the luciferase reporter element depending on a PPARdelta ligand. The stably and constitutively expressed fusion protein GR-GAL4-humanPPARdelta-LBD binds in the cell nucleus of the PPARdelta reporter cell line via the GAL4 protein portion to the GAL4 DNA binding motifs 5′-upstream of the luciferase reporter element which is stably integrated in the genome of the cell line. There is only little expression of the luciferase reporter gene in the absence of a PPARdelta ligand if fatty acid-depleted fetal calf serum (cs-FCS) is used in the assay. PPARdelta ligands bind and activate the PPARdelta fusion protein and thereby stimulate expression of the luciferase reporter gene. The luciferase which is formed can be detected by means of chemiluminescence via an appropriate substrate.
The production of the stable PPARdelta reporter cell line is based on a stable HEK-cell clone which was stably transfected with a luciferase reporter element. This step was already described above in the section “construction of the PPARalpha reporter cell line”. In a second step, the PPARdelta fusion protein (GR-GAL4-humanPPARdelta-LBD was stably introduced into this cell clone. For this purpose, the cDNA coding for the N-terminal 76 amino acids of the glucocorticoid receptor (Accession #P04150) was linked to the cDNA section coding for amino acids 1-147 of the yeast transcription factor GAL4 (Accession #P04386). The cDNA of the ligand-binding domain of the human PPARdelta receptor (amino acids S139-Y441; Accession #L07592) was cloned in at the 3′-end of this GR-GAL4 construct. The fusion construct prepared in this way (GR-GAL4-humanPPARdelta-LBD) was recloned into the plasmid pcDNA3 (Invitrogen) in order to enable constitutive expression by the cytomegalovirus promoter. This plasmid was linearized with a restriction endonuclease and stably transfected into the previously described cell clone containing the luciferase reporter element. The resulting PPARdelta reporter cell line which contains a luciferase reporter element and constitutively expresses the PPARdelta fusion protein (GR-GAL4-human PPARdelta-LBD) was isolated by selection with zeocin (0.5 mg/ml) and G418 (0.5 mg/ml).
The activity of PPARdelta agonists is determined in a 3-day assay in exact analogy to the procedure already described for the PPARalpha reporter cell line except that the PPARdelta reporter cell line and a specific PPARdelta agonist was used as a standard to control test efficacy. […] Compounds of the invention of the formula I activate the PPARdelta receptor.

Question: Which EC50 does the source give for `Cc1nc(-c2ccc(C(F)(F)F)cc2)sc1COc1ccc(S(=O)(=O)Nc2nnc(C(C)C)s2)cc1` [Example 1, N-(5-Isopropyl-[1,3,4]thiadiazol-2-yl)-4-[4-methyl-2-(4-trifluoromethyl-phenyl)-thiazol-5-ylmethoxy]-benzenesulfonamide] here?
Answer: The EC50 was 370 nM.

Question: `COc1ccc2c(COc3ccc(S(=O)(=O)Nc4nnc(C(C)C)s4)cc3)coc2c1` [Example 3, N-(5-Isopropyl-[1,3,4]thiadiazol-2-yl)-4-(6-methoxy-benzofuran-3-ylmethoxy)-benzenesulfonamide] was tested. Which EC50 did it give?
Answer: Its EC50 is 480 nM.

Question: For `CC(C)c1nnc(NS(=O)(=O)c2ccc(OCc3ccc(Oc4ccc(C(F)(F)F)cc4)cc3)cc2)s1` [Example 4, N-(5-Isopropyl-[1,3,4]thiadiazol-2-yl)-4-[4-(4-trifluoromethyl-phenoxy)-benzyloxy]-benzenesulfonamide], which EC50 is on record?
Answer: The EC50 was 1130 nM.

Question: For `COc1ccc(-c2nc(COc3ccc(S(=O)(=O)Nc4nnc(C(C)C)s4)cc3)no2)cc1` [Example 9, N-(5-Isopropyl-[1,3,4]thiadiazol-2-yl)-4-[5-(4-methoxy-phenyl)-[1,2,4]oxadiazol-3-ylmethoxy]-benzenesulfonamide], which EC50 is on record?
Answer: Its EC50 is 260 nM.

Question: `COc1ccc(-c2nc(COc3ccc(S(=O)(=O)Nc4nnc(C(C)C)s4)cc3)co2)cc1` [Example 13, N-(5-Isopropyl-[1,3,4]thiadiazol-2-yl)-4-[2-(4-methoxy-phenyl)-oxazol-4-ylmethoxy]-benzenesulfonamide] was tested. Which EC50 did it give?
Answer: Its EC50 is 650 nM.

Question: `CCc1oc(-c2cccc(C(F)(F)F)c2)nc1COc1ccc(S(=O)(=O)Nc2nnc(C(C)C)s2)cc1` [Example 14, 4-[5-Ethyl-2-(3-trifluoromethyl-phenyl)-oxazol-4-ylmethoxy]-N-(5-isopropyl-[1,3,4]thiadiazol-2-yl)-benzenesulfonamide] was tested. Which EC50 did it give?
Answer: The EC50 was 670 nM.
